Experimental data reported in US20250171431A1, “HETEROCYCLIC INHIBITORS OF IGF-1R FOR TREATMENT OF DISEASE” (HORIZON THERAPEUTICS IRELAND DAC, priority 2023, published 2025).

Target: IGF-1R (Homo sapiens (Human), UniProt P08069)
Assay: Example B-1: IGF-1R Assay (PC3 cells, IGF1 stimulation, AlphaLISA)
Format: cell-based
Conditions: 200 ng/mL IGF1 stimulation, read-out: Biological Activity against IGF-1R IC50
Outline: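 Readout is AlphaLISA signal from lysed PC3 cells, expressed as % inhibition versus vehicle and EC80 controls and banded by IC50. Before lysis, the cells were starved of serum for 2 h, exposed to 3× serially diluted compound for 2 h, and stimulated for 30 min with 200 ng/mL IGF1 (final).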

Chain of IGF-1R (P08069 31-1367): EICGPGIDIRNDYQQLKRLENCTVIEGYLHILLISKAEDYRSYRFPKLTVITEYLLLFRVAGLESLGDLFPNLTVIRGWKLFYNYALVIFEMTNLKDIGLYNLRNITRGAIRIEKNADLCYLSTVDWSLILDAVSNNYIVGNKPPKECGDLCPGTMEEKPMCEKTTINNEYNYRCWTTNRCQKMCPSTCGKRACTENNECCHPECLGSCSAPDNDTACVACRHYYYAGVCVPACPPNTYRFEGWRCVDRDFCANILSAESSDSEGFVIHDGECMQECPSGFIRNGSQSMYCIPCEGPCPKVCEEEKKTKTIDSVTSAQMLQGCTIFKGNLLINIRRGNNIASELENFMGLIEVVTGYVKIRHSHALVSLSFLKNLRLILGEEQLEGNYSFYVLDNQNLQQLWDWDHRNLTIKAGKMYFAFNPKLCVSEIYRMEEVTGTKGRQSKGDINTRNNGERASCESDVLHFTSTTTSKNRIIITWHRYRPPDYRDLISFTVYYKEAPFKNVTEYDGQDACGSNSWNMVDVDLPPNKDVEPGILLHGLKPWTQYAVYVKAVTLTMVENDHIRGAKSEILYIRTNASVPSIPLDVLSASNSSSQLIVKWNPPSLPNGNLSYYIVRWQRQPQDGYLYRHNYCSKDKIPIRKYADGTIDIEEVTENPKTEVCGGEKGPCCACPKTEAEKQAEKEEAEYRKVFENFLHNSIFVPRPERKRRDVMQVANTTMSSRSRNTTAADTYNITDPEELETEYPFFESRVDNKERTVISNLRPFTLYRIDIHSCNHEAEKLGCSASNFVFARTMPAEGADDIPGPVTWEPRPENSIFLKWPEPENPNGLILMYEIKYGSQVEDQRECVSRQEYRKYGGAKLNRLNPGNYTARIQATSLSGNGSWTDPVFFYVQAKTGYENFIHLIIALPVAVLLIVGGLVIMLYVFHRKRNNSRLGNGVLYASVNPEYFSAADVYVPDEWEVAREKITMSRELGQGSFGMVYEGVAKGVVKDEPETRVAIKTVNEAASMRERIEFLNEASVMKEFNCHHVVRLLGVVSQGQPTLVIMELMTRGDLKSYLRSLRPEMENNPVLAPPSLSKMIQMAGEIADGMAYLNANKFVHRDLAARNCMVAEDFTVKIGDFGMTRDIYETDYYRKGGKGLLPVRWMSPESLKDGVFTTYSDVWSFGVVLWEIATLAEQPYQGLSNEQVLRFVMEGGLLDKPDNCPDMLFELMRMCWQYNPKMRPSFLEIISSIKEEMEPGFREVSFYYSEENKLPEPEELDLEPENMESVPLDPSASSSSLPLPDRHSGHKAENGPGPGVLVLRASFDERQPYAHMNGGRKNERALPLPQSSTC

**Q.** For `COc1cc(Nc2nccc(Nc3cc4ccccc4nc3C)n2)ccc1OCCCN1CCCCC1` [Compound 424, 2-[3-methoxy-4-(3-piperidinopropoxy)phenylamino]-4-(2-methyl-3-quinolylamino)pyrimidine], which IC50 is on record?
**A.** The IC50 was 0.5 to 2 µM.

**Q.** With `c1ccc2ncc(Nc3ccnc(Nc4ccc(OCCCN5CCCCC5)c(OCC5CC5)c4)n3)cc2c1` [Compound 425, 2-[3-(cyclopropylmethoxy)-4-(3-piperidinopropoxy)phenylamino]-4-(3-quinolylamino)pyrimidine] as the molecule, how does the IC50 read?
**A.** Its IC50 is at most 0.5 µM.

**Q.** Which IC50 does the source give for `COc1ccc2cc(Nc3ccnc(Nc4ccc(OCCCN5CCCCC5)c(OC)c4)n3)cnc2c1` [Compound 426, 2-[3-methoxy-4-(3-piperidinopropoxy)phenylamino]-4-(7-methoxy-3-quinolylamino)pyrimidine] here?
**A.** Its IC50 is at most 0.5 µM.

**Q.** Which IC50 does the source give for `COc1cc(Nc2nccc(Nc3cnc4ccc(F)cc4c3)n2)ccc1OCCCN1CCCCC1` [Compound 427, 4-(6-fluoro-3-quinolylamino)-2-[3-methoxy-4-(3-piperidinopropoxy)phenylamino]pyrimidine] here?
**A.** The IC50 was at most 0.5 µM.

**Q.** Which IC50 does the source give for `COc1cc(Nc2nccc(Nc3cnc4ccc(C)cc4c3)n2)ccc1OCCCN1CCCCC1` [Compound 429, 2-[3-methoxy-4-(3-piperidinopropoxy)phenylamino]-4-(6-methyl-3-quinolylamino)pyrimidine] here?
**A.** The IC50 was at most 0.5 µM.

**Q.** How did the IC50 turn out when `COc1cc(Nc2nccc(Nc3cnc4c(Cl)cccc4c3)n2)ccc1OCCCN1CCCCC1` [Compound 430, 4-(8-chloro-3-quinolylamino)-2-[3-methoxy-4-(3-piperidinopropoxy)phenylamino]pyrimidine] was run?
**A.** The IC50 was at most 0.5 µM.

**Q.** For `COc1cc(Nc2ncc(F)c(Nc3cnc4ccccc4c3)n2)ccc1OCCCN1CCCCC1` [Compound 431, 5-fluoro-2-[3-methoxy-4-(3-piperidinopropoxy)phenylamino]-4-(3-quinolylamino)pyrimidine], which IC50 is on record?
**A.** Its IC50 is at most 0.5 µM.

**Q.** With `Fc1cnc(Nc2ccc(OCCCN3CCCCC3)cc2)nc1Nc1cnc2ccccc2c1` [Compound 432, 5-fluoro-2-[p-(3-piperidinopropoxy)phenylamino]-4-(3-quinolylamino)pyrimidine] as the molecule, how does the IC50 read?
**A.** The IC50 was at most 0.5 µM.

**Q.** `COc1cc(Nc2nccc(Nc3ccc4cccnc4c3)n2)ccc1OCCCN1CCCCC1` [Compound 433, 2-[3-methoxy-4-(3-piperidinopropoxy)phenylamino]-4-(7-quinolylamino) pyrimidine] was tested. Which IC50 did it give?
**A.** The IC50 was 0.5 to 2 µM.

**Q.** For `COc1cc(Nc2nccc(Nc3ccc4scnc4c3)n2)ccc1OCCCN1CCCCC1` [Compound 443, 4-(1,3-benzothiazol-5-ylamino)-2-[3-methoxy-4-(3-piperidinopropoxy)phenylamino] pyrimidine], which IC50 is on record?
**A.** Its IC50 is at most 0.5 µM.

**Q.** How did the IC50 turn out when `COc1ccc2cc(Nc3ccnc(Nc4ccc(OCCCN5CCCCC5)c(OC)c4)n3)ccc2c1` [Compound 444, 4-(6-methoxy-2-naphthylamino)-2-[3-methoxy-4-(3-piperidinopropoxy)phenylamino] pyrimidine] was run?
**A.** Its IC50 is at most 0.5 µM.

**Q.** `COc1cc(Nc2nccc(Nc3cc(F)c4ncccc4c3)n2)ccc1OCCCN1CCCCC1` [Compound 447, 4-(8-fluoro-6-quinolylamino)-2-[3-methoxy-4-(3-piperidinopropoxy)phenylamino] pyrimidine] was tested. Which IC50 did it give?
**A.** The IC50 was at most 0.5 µM.

**Q.** With `COc1cc(Nc2nccc(Nc3ccc4c(c3)CCC(=O)N4)n2)ccc1OCCCN1CCCCC1` [Compound 448, 6-{2-[3-methoxy-4-(3-piperidinopropoxy)phenylamino]-4-pyrimidinylamino}-3,4-dihydro-2(1H)-quinolinone] as the molecule, how does the IC50 read?
**A.** The IC50 was at most 0.5 µM.

**Q.** How did the IC50 turn out when `COc1cc(Nc2nccc(Nc3ccc4c(c3)CCCC4=O)n2)ccc1OCCCN1CCCCC1` [Compound 449, 6-{2-[3-methoxy-4-(3-piperidinopropoxy)phenylamino]-4-pyrimidinylamino}-3,4-dihydro-1(2H)-naphthalenone] was run?
**A.** Its IC50 is at most 0.5 µM.

**Q.** Which IC50 does the source give for `COc1cc(Nc2nccc(Nc3ccc4c(c3)CCN(C)C4)n2)ccc1OCCCN1CCCCC1` [Compound 450, 2-[3-methoxy-4-(3-piperidinopropoxy)phenylamino]-4-(2-methyl-1,2,3,4-tetrahydro-6-isoquinolylamino) pyrimidine] here?
**A.** Its IC50 is 0.5 to 2 µM.

**Q.** Which IC50 does the source give for `COc1cc(Nc2nccc(Nc3ccc4c(c3)CCCN4C)n2)ccc1OCCCN1CCCCC1` [Compound 451, 2-[3-methoxy-4-(3-piperidinopropoxy)phenylamino]-4-(1-methyl-1,2,3,4-tetrahydro-6-quinolylamino) pyrimidine] here?
**A.** The IC50 was at most 0.5 µM.

**Q.** `COc1ccc2ccc(Nc3ccnc(Nc4ccc(OCCCN5CCCCC5)c(OC)c4)n3)cc2c1` [Compound 452, 4-(7-methoxy-2-naphthylamino)-2-[3-methoxy-4-(3-piperidinopropoxy)phenylamino] pyrimidine] was tested. Which IC50 did it give?
**A.** Its IC50 is at most 0.5 µM.

**Q.** Which IC50 does the source give for `COc1cc(Nc2nccc(Nc3ccc4c(OC)cccc4c3)n2)ccc1OCCCN1CCCCC1` [Compound 453, 4-(5-methoxy-2-naphthylamino)-2-[3-methoxy-4-(3-piperidinopropoxy)phenylamino] pyrimidine] here?
**A.** Its IC50 is at most 0.5 µM.

**Q.** `COc1cc(Nc2nccc(Nc3cc(C)c4ccccc4c3)n2)ccc1OCCCN1CCCCC1` [Compound 454, 2-[3-methoxy-4-(3-piperidinopropoxy)phenylamino]-4-(4-methyl-2-naphthylamino) pyrimidine] was tested. Which IC50 did it give?
**A.** Its IC50 is at most 0.5 µM.

**Q.** With `COc1cc(Nc2nccc(Nc3ccc4nc(C)ccc4c3)n2)ccc1OCCCN1CCCCC1` [Compound 456, 2-[3-methoxy-4-(3-piperidinopropoxy)phenylamino]-4-(2-methyl-6-quinolylamino) pyrimidine] as the molecule, how does the IC50 read?
**A.** The IC50 was at most 0.5 µM.

**Q.** With `COc1cc(Nc2nccc(Nc3cc(Cl)c4ncccc4c3)n2)ccc1OCCCN1CCCCC1` [Compound 457, 4-(8-chloro-6-quinolylamino)-2-[3-methoxy-4-(3-piperidinopropoxy)phenylamino] pyrimidine] as the molecule, how does the IC50 read?
**A.** Its IC50 is at most 0.5 µM.

**Q.** Which IC50 does the source give for `Clc1cc(Nc2nccc(Nc3cnc4ccccc4c3)n2)ccc1N1CCOCC1` [Compound 459, 2-(3-chloro-4-morpholinophenylamino)-4-(3-quinolylamino)pyrimidine] here?
**A.** Its IC50 is at most 0.5 µM.

**Q.** With `COc1cc(Nc2nccc(Nc3cnc4c(Cl)cccc4c3)n2)ccc1N1CCOCC1` [Compound 461, 4-(8-chloro-3-quinolylamino)-2-(3-methoxy-4-morpholinophenylamino) pyrimidine] as the molecule, how does the IC50 read?
**A.** Its IC50 is at most 0.5 µM.

**Q.** For `COc1cc(Nc2nccc(Nc3cnc4ccc(Cl)cc4c3)n2)ccc1N1CCOCC1` [Compound 462, 4-(6-chloro-3-quinolylamino)-2-(3-methoxy-4-morpholinophenylamino) pyrimidine], which IC50 is on record?
**A.** The IC50 was at most 0.5 µM.

**Q.** Which IC50 does the source give for `COc1ccc2cc(Nc3ccnc(Nc4ccc(N5CCN(C)CC5)cc4OC)n3)cnc2c1` [Compound 463, 2-[2-methoxy-4-(4-methyl-1-piperazinyl)phenylamino]-4-(7-methoxy-3-quinolylamino)pyrimidine] here?
**A.** Its IC50 is at most 0.5 µM.

**Q.** For `COc1cc(N2CCN(C)CC2)ccc1Nc1nccc(Nc2cnc3cc(Cl)ccc3c2)n1` [Compound 464, 4-(7-chloro-3-quinolylamino)-2-[2-methoxy-4-(4-methyl-1-piperazinyl)phenylamino] pyrimidine], which IC50 is on record?
**A.** The IC50 was at most 0.5 µM.

**Q.** `CC(O)C(=O)N1CCN(c2ccc(Nc3nccc(Nc4cnc5ccccc5c4)n3)cc2)CC1` (stereo not shown) [Compound 465, 2-hydroxy-1-(4-{p-[4-(3-quinolylamino)-2-pyrimidinylamino]phenyl}-1-piperazinyl)-1-propanone] was tested. Which IC50 did it give?
**A.** The IC50 was at most 0.5 µM.

**Q.** How did the IC50 turn out when `COc1cc(N2CCN(C)CC2)ccc1Nc1nccc(Nc2cnc3c(Cl)cccc3c2)n1` [Compound 467, 4-(8-chloro-3-quinolylamino)-2-[2-methoxy-4-(4-methyl-1-piperazinyl)phenylamino] pyrimidine] was run?
**A.** The IC50 was at most 0.5 µM.

**Q.** Which IC50 does the source give for `COc1cc(Nc2nccc(Nc3cnc4cc(F)c(F)cc4c3)n2)cnc1N1CCN(C)CC1` [Compound 468, 4-(6,7-difluoro-3-quinolylamino)-2-[5-methoxy-6-(4-methyl-1-piperazinyl)-3-pyridylamino]pyrimidine] here?
**A.** The IC50 was at most 0.5 µM.

**Q.** `COc1cc(Nc2nccc(Nc3cnc4cc(F)c(F)cc4c3)n2)cnc1N1CCOCC1` [Compound 469, 4-(6,7-difluoro-3-quinolylamino)-2-(5-methoxy-6-morpholino-3-pyridylamino)pyrimidine] was tested. Which IC50 did it give?
**A.** The IC50 was at most 0.5 µM.

**Q.** For `COc1cc(Nc2nccc(Nc3cnc4cc(F)c(F)cc4c3)n2)cnc1N1CCNC(=O)C1` [Compound 471, 4-{5-[4-(6,7-difluoro-3-quinolylamino)-2-pyrimidinylamino]-3-methoxy-2-pyridyl}-2-piperazinone], which IC50 is on record?
**A.** Its IC50 is over 10 µM.

**Q.** How did the IC50 turn out when `COc1nc(N2CCN(C)CC2)ccc1Nc1nccc(Nc2cnc3cc(F)c(F)cc3c2)n1` [Compound 472, 4-(6,7-difluoro-3-quinolylamino)-2-[2-methoxy-6-(4-methyl-1-piperazinyl)-3-pyridylamino]pyrimidine] was run?
**A.** The IC50 was at most 0.5 µM.

**Q.** For `COc1cc(N2CCN(C)CC2)ncc1Nc1nccc(Nc2cnc3cc(F)c(F)cc3c2)n1` [Compound 473, 4-(6,7-difluoro-3-quinolylamino)-2-[4-methoxy-6-(4-methy1-1-piperazinyl)-3-pyridylamino]pyrimidine], which IC50 is on record?
**A.** The IC50 was at most 0.5 µM.

**Q.** Which IC50 does the source give for `COc1cc(Nc2nccc(Nc3cnc4cc(F)c(F)cc4c3)n2)cnc1N1CCN(CC(F)(F)F)CC1` [Compound 474, 4-(6,7-difluoro-3-quinolylamino)-2-{5-methoxy-6-[4-(2,2,2-trifluoroethyl)-1-piperazinyl]-3-pyridylamino}pyrimidine] here?
**A.** The IC50 was 0.5 to 2 µM.

**Q.** `COc1cc(Nc2nccc(Nc3cnc4cc(F)c(F)cc4c3)n2)cnc1N1CCN(C)C(C(F)(F)F)C1` (stereo not shown) [Compound 475, 4-(6,7-difluoro-3-quinolylamino)-2-{5-methoxy-6-[4-methyl-3-(trifluoromethyl)-1-piperazinyl]-3-pyridylamino}pyrimidine] was tested. Which IC50 did it give?
**A.** Its IC50 is 0.5 to 2 µM.

**Q.** For `COc1cc(Nc2nccc(Nc3cnc4ccc(Cl)cc4c3)n2)cnc1N1CCC(C)(O)CC1` [Compound 476, 1-{5-[4-(6-chloro-3-quinolylamino)-2-pyrimidinylamino]-3-methoxy-2-pyridyl}-4-methyl-4-piperidinol], which IC50 is on record?
**A.** The IC50 was at most 0.5 µM.

**Q.** `COc1cc(Nc2nccc(Nc3cnc4ccc(Cl)cc4c3)n2)cnc1N1CCN(C)CC1` [Compound 477, 4-(6-chloro-3-quinolylamino)-2-[5-methoxy-6-(4-methyl-1-piperazinyl)-3-pyridylamino]pyrimidine] was tested. Which IC50 did it give?
**A.** Its IC50 is at most 0.5 µM.
